Experimental data published in PMC6199744, “Development of Chemical Proteomics for the Folateome and Analysis of the Kinetoplastid Folateome” (ACS Infectious Diseases, 2018).
Read-outs that look alike come from different tables or passages of the source.

Columns and labels:
Format in all cases: binding
[1] = biological target: T1, HeLa cell extract proteins (Homo sapiens, UniProt Q9HAV4)
T1 construct: endogenous in cells; host or cells: HeLa cell extract
T1 sequence (Q9HAV4 1-1204): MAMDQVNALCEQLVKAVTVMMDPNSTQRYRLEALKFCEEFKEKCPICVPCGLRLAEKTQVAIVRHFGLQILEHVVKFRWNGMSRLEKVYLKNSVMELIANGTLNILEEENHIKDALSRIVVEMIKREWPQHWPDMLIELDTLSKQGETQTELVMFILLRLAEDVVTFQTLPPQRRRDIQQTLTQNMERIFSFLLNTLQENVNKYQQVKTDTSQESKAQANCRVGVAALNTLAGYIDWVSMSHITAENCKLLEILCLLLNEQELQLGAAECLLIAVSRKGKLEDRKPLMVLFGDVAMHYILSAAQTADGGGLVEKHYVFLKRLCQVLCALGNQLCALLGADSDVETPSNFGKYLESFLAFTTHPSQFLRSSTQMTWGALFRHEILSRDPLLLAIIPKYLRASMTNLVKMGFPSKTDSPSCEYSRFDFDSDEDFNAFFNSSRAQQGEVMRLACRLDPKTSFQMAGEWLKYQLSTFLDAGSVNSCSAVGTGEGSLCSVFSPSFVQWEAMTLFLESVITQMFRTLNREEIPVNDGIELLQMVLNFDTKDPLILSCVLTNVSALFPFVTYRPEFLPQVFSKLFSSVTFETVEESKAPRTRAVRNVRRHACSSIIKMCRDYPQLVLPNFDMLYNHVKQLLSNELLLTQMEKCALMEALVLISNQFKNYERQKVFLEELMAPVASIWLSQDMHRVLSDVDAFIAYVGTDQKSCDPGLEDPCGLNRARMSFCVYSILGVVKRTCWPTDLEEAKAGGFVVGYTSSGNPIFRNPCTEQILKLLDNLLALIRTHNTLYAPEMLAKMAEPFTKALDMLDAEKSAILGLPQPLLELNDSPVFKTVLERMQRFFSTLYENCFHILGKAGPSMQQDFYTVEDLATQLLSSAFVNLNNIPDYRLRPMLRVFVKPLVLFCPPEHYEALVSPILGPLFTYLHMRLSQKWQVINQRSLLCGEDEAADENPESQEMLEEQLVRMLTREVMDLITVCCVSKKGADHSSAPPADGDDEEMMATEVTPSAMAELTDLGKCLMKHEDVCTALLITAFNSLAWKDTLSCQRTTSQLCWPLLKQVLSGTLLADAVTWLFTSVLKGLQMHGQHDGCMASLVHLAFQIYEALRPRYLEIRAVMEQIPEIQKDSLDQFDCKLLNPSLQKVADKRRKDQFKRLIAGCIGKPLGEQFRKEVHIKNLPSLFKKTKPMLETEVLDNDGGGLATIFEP

[2] = biological target: T2, HeLa cell extract proteins (Homo sapiens, UniProt Q9NSI6)
T2 construct: endogenous in cells; host or cells: HeLa cell extract

[3] = biological target: T3, HeLa cell extract proteins (Homo sapiens, UniProt Q9H2U1)
T3 construct: endogenous in cells; host or cells: HeLa cell extract
T3 sequence (Q9H2U1 1-1008): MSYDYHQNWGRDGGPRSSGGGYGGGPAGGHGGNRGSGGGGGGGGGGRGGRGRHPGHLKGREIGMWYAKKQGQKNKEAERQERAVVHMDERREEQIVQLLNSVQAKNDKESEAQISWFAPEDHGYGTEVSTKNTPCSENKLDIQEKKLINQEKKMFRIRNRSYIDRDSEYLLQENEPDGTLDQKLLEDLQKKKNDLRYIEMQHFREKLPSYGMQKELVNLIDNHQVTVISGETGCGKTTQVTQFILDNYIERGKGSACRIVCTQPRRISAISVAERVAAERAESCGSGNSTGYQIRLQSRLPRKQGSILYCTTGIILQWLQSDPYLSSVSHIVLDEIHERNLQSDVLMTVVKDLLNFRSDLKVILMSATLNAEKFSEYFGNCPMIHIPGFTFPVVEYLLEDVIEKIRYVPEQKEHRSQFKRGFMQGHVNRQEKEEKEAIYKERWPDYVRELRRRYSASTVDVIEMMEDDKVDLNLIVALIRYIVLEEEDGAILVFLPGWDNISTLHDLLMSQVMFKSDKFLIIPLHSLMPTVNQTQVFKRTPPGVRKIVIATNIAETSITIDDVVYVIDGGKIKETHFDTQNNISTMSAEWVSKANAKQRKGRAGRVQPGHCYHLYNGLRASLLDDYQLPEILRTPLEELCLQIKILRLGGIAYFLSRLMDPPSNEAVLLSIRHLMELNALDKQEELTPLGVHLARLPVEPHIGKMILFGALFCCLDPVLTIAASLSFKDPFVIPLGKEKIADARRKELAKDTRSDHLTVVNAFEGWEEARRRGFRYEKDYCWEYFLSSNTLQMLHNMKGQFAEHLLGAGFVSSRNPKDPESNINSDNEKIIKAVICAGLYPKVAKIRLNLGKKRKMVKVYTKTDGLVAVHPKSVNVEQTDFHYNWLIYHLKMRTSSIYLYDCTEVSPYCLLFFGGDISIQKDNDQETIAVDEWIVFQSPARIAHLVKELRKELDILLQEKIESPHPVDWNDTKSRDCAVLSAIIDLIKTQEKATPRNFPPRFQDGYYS

[4] = biological target: T4, HeLa cell extract proteins (Homo sapiens, UniProt Q9UBV8)
T4 construct: endogenous in cells; host or cells: HeLa cell extract
T4 sequence (Q9UBV8 1-284): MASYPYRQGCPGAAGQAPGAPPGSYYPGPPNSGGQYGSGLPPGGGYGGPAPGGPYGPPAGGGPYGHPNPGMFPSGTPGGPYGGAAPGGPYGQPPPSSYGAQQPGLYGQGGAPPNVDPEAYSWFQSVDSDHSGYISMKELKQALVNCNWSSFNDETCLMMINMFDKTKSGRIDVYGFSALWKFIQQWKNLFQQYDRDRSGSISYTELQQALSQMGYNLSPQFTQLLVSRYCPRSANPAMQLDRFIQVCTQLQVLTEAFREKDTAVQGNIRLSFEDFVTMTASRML

[5] = biological target: T5, HeLa cell extract proteins (Homo sapiens, UniProt P34932)
T5 construct: endogenous in cells; host or cells: HeLa cell extract

[6] = biological target: T6, HeLa cell extract proteins (Homo sapiens, UniProt P63104)
T6 construct: endogenous in cells; host or cells: HeLa cell extract
T6 sequence (P63104 1-245): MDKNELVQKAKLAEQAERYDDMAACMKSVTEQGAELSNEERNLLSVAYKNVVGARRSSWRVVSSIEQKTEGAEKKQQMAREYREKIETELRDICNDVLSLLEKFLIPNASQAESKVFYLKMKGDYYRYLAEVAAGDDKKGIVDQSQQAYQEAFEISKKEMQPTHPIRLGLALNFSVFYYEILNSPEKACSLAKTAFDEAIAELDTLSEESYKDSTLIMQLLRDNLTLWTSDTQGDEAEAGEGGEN

[7] = HeLa, protein YWHAZ (28 KDA PROTEIN.)
[8] = HeLa, protein DHX36 (ISOFORM 1 OF PROBABLE ATP-DEPENDENT RNA HELICASE DHX36)

T5 sequence (P34932 whole entry): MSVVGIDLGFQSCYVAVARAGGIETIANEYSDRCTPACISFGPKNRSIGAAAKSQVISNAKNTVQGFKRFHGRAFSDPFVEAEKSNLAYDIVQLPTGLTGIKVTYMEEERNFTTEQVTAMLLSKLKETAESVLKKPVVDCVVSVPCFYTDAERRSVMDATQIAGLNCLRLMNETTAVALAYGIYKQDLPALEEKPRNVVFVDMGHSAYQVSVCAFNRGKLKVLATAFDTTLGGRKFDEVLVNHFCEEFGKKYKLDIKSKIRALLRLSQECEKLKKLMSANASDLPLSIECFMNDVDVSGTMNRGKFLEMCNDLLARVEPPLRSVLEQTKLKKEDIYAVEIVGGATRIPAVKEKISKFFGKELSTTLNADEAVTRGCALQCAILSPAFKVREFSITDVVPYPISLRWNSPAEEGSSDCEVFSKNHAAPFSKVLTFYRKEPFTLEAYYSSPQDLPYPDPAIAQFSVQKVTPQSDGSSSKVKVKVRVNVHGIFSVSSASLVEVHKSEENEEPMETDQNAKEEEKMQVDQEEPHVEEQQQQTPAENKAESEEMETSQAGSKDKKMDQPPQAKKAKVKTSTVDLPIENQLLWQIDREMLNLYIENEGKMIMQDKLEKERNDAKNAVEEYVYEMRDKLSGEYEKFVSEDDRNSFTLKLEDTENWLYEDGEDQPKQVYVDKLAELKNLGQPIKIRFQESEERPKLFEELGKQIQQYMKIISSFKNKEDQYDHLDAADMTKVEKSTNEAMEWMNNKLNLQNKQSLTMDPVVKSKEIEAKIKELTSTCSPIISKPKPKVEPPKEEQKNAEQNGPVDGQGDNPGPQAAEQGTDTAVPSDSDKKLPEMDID
T2 sequence (Q9NSI6 whole entry): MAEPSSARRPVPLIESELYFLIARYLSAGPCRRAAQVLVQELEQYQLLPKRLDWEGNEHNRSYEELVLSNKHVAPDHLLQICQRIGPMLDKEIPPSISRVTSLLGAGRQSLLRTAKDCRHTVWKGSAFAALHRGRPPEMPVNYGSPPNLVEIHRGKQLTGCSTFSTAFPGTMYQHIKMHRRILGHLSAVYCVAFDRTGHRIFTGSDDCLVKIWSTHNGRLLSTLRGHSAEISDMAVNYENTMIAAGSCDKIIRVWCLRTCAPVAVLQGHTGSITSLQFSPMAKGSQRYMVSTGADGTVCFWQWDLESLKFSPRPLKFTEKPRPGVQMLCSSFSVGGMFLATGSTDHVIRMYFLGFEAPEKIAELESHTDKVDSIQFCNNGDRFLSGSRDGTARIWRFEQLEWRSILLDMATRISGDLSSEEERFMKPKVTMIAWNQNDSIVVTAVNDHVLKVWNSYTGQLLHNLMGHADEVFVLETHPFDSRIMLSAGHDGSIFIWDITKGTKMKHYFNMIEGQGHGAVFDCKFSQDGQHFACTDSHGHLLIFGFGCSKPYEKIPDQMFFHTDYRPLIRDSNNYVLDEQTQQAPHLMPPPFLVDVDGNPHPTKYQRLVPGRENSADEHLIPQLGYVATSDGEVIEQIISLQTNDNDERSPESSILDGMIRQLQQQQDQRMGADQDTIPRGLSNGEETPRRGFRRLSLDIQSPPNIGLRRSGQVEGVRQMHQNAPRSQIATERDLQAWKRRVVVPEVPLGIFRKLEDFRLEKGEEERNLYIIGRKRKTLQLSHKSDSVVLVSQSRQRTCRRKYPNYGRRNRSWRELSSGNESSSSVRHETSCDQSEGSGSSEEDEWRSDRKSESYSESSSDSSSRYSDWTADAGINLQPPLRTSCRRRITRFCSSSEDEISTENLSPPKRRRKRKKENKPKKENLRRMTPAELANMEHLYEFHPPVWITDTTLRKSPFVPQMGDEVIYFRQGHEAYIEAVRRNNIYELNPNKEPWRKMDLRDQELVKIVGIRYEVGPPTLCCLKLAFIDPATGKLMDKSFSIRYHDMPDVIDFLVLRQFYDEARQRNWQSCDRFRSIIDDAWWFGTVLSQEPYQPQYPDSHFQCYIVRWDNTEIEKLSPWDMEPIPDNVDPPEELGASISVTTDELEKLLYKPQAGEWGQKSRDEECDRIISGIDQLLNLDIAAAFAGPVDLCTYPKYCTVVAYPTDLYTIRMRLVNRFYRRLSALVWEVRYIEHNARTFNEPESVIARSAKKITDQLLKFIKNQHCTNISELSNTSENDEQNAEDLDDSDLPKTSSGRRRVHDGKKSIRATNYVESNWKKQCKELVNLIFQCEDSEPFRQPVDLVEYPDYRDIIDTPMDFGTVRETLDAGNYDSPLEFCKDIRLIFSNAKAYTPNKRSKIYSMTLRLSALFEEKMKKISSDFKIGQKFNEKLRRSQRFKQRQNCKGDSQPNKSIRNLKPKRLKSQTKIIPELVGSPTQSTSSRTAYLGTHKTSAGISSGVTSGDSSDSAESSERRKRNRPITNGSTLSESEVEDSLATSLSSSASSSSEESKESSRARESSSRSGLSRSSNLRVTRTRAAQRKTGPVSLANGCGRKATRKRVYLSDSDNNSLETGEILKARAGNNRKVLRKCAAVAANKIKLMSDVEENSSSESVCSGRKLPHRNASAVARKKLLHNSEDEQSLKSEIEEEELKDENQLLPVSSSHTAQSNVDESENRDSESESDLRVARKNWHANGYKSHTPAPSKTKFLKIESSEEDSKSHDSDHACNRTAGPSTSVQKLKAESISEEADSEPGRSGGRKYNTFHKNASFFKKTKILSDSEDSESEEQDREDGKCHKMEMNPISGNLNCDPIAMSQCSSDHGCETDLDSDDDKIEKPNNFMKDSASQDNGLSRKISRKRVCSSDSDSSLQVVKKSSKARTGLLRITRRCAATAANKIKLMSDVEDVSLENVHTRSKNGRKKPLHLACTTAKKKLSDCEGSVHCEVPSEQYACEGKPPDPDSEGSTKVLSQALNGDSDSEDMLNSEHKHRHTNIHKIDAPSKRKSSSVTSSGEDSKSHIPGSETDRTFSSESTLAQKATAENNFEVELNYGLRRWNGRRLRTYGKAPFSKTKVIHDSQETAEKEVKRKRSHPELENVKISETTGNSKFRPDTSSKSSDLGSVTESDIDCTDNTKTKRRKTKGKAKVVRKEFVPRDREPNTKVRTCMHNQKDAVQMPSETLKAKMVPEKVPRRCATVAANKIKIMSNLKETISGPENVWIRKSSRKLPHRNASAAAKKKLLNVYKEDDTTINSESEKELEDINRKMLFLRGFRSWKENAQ

SMILES	fold changes relative to vehicle control ([1]; HeLa, protein XPO5)	fold changes relative to vehicle control ([2]; captured protein BRWD1, HeLa)	fold changes relative to vehicle control ([3]; protein DHX36, HeLa)	fold changes relative to vehicle control ([4]; HeLa, protein PEF1)	fold changes relative to vehicle control ([5]; protein HSPA4, HeLa)	fold changes relative to vehicle control [6, 7]	fold changes relative to vehicle control ([1]; protein XPO5, HeLa)	fold changes relative to vehicle control ([2]; HeLa, protein BRWD1)	fold changes relative to vehicle control [3, 8]	fold changes relative to vehicle control ([4]; HeLa, captured protein PEF1)	fold changes relative to vehicle control ([5]; HeLa, protein HSPA4)	fold changes relative to vehicle control ([6]; HeLa, protein YWHAZ)	also measured
Nc1nc2cccc(-c3ccccc3)c2n1Cc1ccc(Cl)c(Cl)c1 [compound 3]	1.1	0.9	0.98	1.06	0.92	0.72 fold	–	–	–	–	–	–	–
NCCOCCOCC(=O)Nc1nc2ncc(CNc3ccc(C(=O)NC(CCC(=O)O)C(=O)O)cc3)nc2c(=O)[nH]1 (stereo not drawn) [compound 6]	–	–	–	–	–	–	1.02	1.05	1.07	0.87	1.26	1.22	–
Nc1nc2[nH]cc(CCc3ccc(C(=O)N[C@@H](CCC(=O)O)C(=O)O)cc3)c2c(=O)[nH]1 [PTX, pemetrexed]	–	–	–	–	–	–	–	–	–	–	–	–	fold changes relative to vehicle control [1]: 0.92; fold changes relative to vehicle control [2]: 1.07; fold changes relative to vehicle control [3]: 0.99; fold changes relative to vehicle control [4]: 0.99; fold changes relative to vehicle control [5]: 1.09; fold changes relative to vehicle control [6]: 1.08
Nc1nc2c(c(=O)[nH]1)N(C=O)C(CNc1ccc(C(=O)N[C@@H](CCC(=O)O)C(=O)O)cc1)CN2 (stereo partly drawn) [LEU, leucovorin]	–	–	–	–	–	–	0.86	0.93	1.12	0.95	0.97	1.05	–
CCCCCCOc1ccc(Cc2cnc(N)nc2N)cc1 [compound 1]	1	1.01	1.17	0.88	1.19	1.31 fold	–	–	–	–	–	–	–
NCCCNc1ccc(C(=O)NC(CCC(=O)O)C(=O)O)cc1 (stereo not drawn) [compound 7]	–	–	–	–	–	–	0.98	0.92	1.03	0.99	0.92	0.9	–
CCCCCCOc1cccc(Cc2cnc(N)nc2N)c1 [compound 2]	1.18	1.03	0.91	0.76	2.1	2.26 fold	–	–	–	–	–	–	–
